From paper PMC11277489, “Novel Piperazine Derivatives of Vindoline as Anticancer Agents” (International Journal of Molecular Sciences, 2024)

What was measured:
HL-60(TB) = experiment: NCI60 five-dose screen, Leukemia; format: cell-based; conditions: Homo sapiens; HL-60(TB), Leukemia; five-dose screen; read-out: GI50
K-562 = experiment: NCI60 five-dose screen, Leukemia; format: cell-based; conditions: Homo sapiens, K562; K-562, Leukemia; five-dose screen; read-out: GI50
EKVX = experiment: NCI60 five-dose screen, Non-small Cell Lung Cancer; format: cell-based; conditions: Homo sapiens, Non-small Cell Lung Cancer, five-dose screen, read-out: GI50
HOP-92 [1] = experiment: NCI60 five-dose screen, Non-small Cell Lung Cancer; format: cell-based; conditions: Homo sapiens; HOP-92, Non-small Cell Lung Cancer; five-dose screen; read-out: GI50
NCI-H226 [2] = experiment: NCI60 five-dose screen, Non-small Cell Lung Cancer; format: cell-based; conditions: Homo sapiens; NCI-H226, Non-small Cell Lung Cancer; five-dose screen; read-out: GI50
NCI-H23 = experiment: NCI60 five-dose screen, Non-small Cell Lung Cancer; format: cell-based; conditions: Homo sapiens; NCI-H23, Non-small Cell Lung Cancer; five-dose screen; read-out: GI50
NCI-H460 = experiment: NCI60 five-dose screen, Non-small Cell Lung Cancer; format: cell-based; conditions: Homo sapiens; NCI-H460, Non-small Cell Lung Cancer; five-dose screen; read-out: GI50
NCI-H522 = experiment: NCI60 five-dose screen, Non-small Cell Lung Cancer; format: cell-based; conditions: Homo sapiens; NCI-H522, Non-small Cell Lung Cancer; five-dose screen; read-out: GI50
HCC-2998 = experiment: NCI60 five-dose screen, Colon Cancer; format: cell-based; conditions: Homo sapiens; HCC-2998, Colon Cancer; five-dose screen; read-out: GI50
HCT-15 = experiment: NCI60 five-dose screen, Colon Cancer; format: cell-based; conditions: Homo sapiens; HCT-15, Colon Cancer; five-dose screen; read-out: GI50
HT29 = experiment: NCI60 five-dose screen, Colon Cancer; format: cell-based; conditions: Homo sapiens, HT-29; HT29, Colon Cancer; five-dose screen; read-out: GI50
SF-268 [3] = experiment: NCI60 five-dose screen, CNS Cancer; format: cell-based; conditions: Homo sapiens; SF-268, CNS Cancer; five-dose screen; read-out: GI50
SNB-75 = experiment: NCI60 five-dose screen, CNS Cancer; format: cell-based; conditions: Homo sapiens; SNB-75, CNS Cancer; five-dose screen; read-out: GI50
U251 = experiment: NCI60 five-dose screen, CNS Cancer; format: cell-based; conditions: Homo sapiens, U-251; U251, CNS Cancer; five-dose screen; read-out: GI50
LOX IMVI [4] = experiment: NCI60 five-dose screen, Melanoma; format: cell-based; conditions: Homo sapiens, Melanoma, five-dose screen, read-out: GI50
MALME-3M = experiment: NCI60 five-dose screen, Melanoma; format: cell-based; conditions: Homo sapiens; MALME-3M, Melanoma; five-dose screen; read-out: GI50
MDA-MB-435 = experiment: NCI60 five-dose screen, Melanoma; format: cell-based; conditions: Homo sapiens; MDA-MB-435, Melanoma; five-dose screen; read-out: GI50
SK-MEL-5 = experiment: NCI60 five-dose screen, Melanoma; format: cell-based; conditions: Homo sapiens; SK-MEL-5, Melanoma; five-dose screen; read-out: GI50
UACC-257 = experiment: NCI60 five-dose screen, Melanoma; format: cell-based; conditions: Homo sapiens; UACC-257, Melanoma; five-dose screen; read-out: GI50
IGROV1 = experiment: NCI60 five-dose screen, Ovarian Cancer; format: cell-based; conditions: Homo sapiens, IGROV-1; IGROV1, Ovarian Cancer; five-dose screen; read-out: GI50
OVCAR-4 [5] = experiment: NCI60 five-dose screen, Ovarian Cancer; format: cell-based; conditions: Homo sapiens; OVCAR-4, Ovarian Cancer; five-dose screen; read-out: GI50
OVCAR-8 = experiment: NCI60 five-dose screen, Ovarian Cancer; format: cell-based; conditions: Homo sapiens; OVCAR-8, Ovarian Cancer; five-dose screen; read-out: GI50
NCI/ADR-RES [6] = experiment: NCI60 five-dose screen, Ovarian Cancer; format: cell-based; conditions: Homo sapiens, Ovarian Cancer, five-dose screen, read-out: GI50
CAKI-1 = experiment: NCI60 five-dose screen, Renal Cancer; format: cell-based; conditions: Homo sapiens; CAKI-1, Renal Cancer; five-dose screen; read-out: GI50
TK-10 = experiment: NCI60 five-dose screen, Renal Cancer; format: cell-based; conditions: Homo sapiens; TK-10, Renal Cancer; five-dose screen; read-out: GI50
T-47D [7] = experiment: NCI60 five-dose screen, Breast Cancer; format: cell-based; conditions: Homo sapiens, T47D; T-47D, Breast Cancer; five-dose screen; read-out: GI50
SR = experiment: NCI60 one-dose screen (10 μM), Leukemia; format: cell-based; conditions: Homo sapiens, 10 μM, Leukemia, read-out: Growth percent rate
HOP-92 [8] = experiment: NCI60 one-dose screen (10 μM), Non-small Cell Lung Cancer; format: cell-based; conditions: Homo sapiens; 10 μM; HOP-92, Non-small Cell Lung Cancer; read-out: Growth percent rate
NCI-H226 [9] = experiment: as above; format: cell-based; conditions: Homo sapiens; 10 μM; NCI-H226, Non-small Cell Lung Cancer; read-out: Growth percent rate
SF-268 [10] = experiment: NCI60 one-dose screen (10 μM), CNS Cancer; format: cell-based; conditions: Homo sapiens; 10 μM; SF-268, CNS Cancer; read-out: Growth percent rate
LOX IMVI [11] = experiment: NCI60 one-dose screen (10 μM), Melanoma; format: cell-based, human; conditions: Homo sapiens; 10 μM; LOX IMVI, Melanoma; read-out: Growth percent rate
UACC-62 = experiment: NCI60 one-dose screen (10 μM), Melanoma; format: cell-based; conditions: Homo sapiens; 10 μM; UACC-62, Melanoma; read-out: Growth percent rate
OVCAR-4 [12] = experiment: NCI60 one-dose screen (10 μM), Ovarian Cancer; format: cell-based; conditions: Homo sapiens; 10 μM; OVCAR-4, Ovarian Cancer; read-out: Growth percent rate
OVCAR-5 = experiment: NCI60 one-dose screen (10 μM), Ovarian Cancer; format: cell-based; conditions: Homo sapiens; 10 μM; OVCAR-5, Ovarian Cancer; read-out: Growth percent rate
NCI/ADR-RES [13] = experiment: NCI60 one-dose screen (10 μM), Ovarian Cancer; format: cell-based; conditions: Homo sapiens, 10 μM, Ovarian Cancer, read-out: Growth percent rate
SK-OV-3 = experiment: NCI60 one-dose screen (10 μM), Ovarian Cancer; format: cell-based; conditions: Homo sapiens; 10 μM; SK-OV-3, Ovarian Cancer; read-out: Growth percent rate
RXF 393 = experiment: NCI60 one-dose screen (10 μM), Renal Cancer; format: cell-based, human; conditions: for activity at 10 µM: Homo sapiens, RXF 393, Renal Cancer, read-out: Growth percent rate
UO-31 = experiment: NCI60 one-dose screen (10 μM), Renal Cancer; format: cell-based; conditions: Homo sapiens; 10 μM; UO-31, Renal Cancer; read-out: Growth percent rate
PC-3 = experiment: NCI60 one-dose screen (10 μM), Prostate Cancer; format: cell-based; conditions: Homo sapiens; 10 μM; PC-3, Prostate Cancer; read-out: Growth percent rate
DU-145 = experiment: NCI60 one-dose screen (10 μM), Prostate Cancer; format: cell-based; conditions: Homo sapiens; 10 μM; DU-145, Prostate Cancer; read-out: Growth percent rate
MDA-MB-231/ATCC = experiment: NCI60 one-dose screen (10 μM), Breast Cancer; format: cell-based, human; conditions: Homo sapiens; 10 μM; MDA-MB-231/ATCC, Breast Cancer; read-out: Growth percent rate
BT-549 = experiment: NCI60 one-dose screen (10 μM), Breast Cancer; format: cell-based; conditions: Homo sapiens; 10 μM; BT-549, Breast Cancer; read-out: Growth percent rate
T-47D [14] = experiment: NCI60 one-dose screen (10 μM), Breast Cancer; format: cell-based; conditions: Homo sapiens, T47D; 10 μM; T-47D, Breast Cancer; read-out: Growth percent rate
MDA-MB-468 = experiment: NCI60 one-dose screen (10 μM), Breast Cancer; format: cell-based; conditions: Homo sapiens; 10 μM; MDA-MB-468, Breast Cancer; read-out: Growth percent rate
[15] = system: 60 human tumor cell lines (NCI60); experiment: NCI60 one-dose screen (10 μM), whole panel; format: cell-based; conditions: 10 μM; mean over 60 human cancer cell lines; read-out: Growth percent rate, Mean

CC[C@]12C=CCN3CC[C@@]4(c5ccc(OC)cc5N(C)[C@H]4[C@@](O)(C(=O)OC)[C@@H]1OC(=O)CCC(=O)N1CCN(c4ccc(C(F)(F)F)cc4)CC1)[C@@H]32 [Compound 28]
GI50 (HL-60(TB)): 1.45 µM | GI50 (K-562): 1.7 µM | GI50 (EKVX): 3.63 µM | GI50 (HOP-92 [1]): 2.09 µM | GI50 (NCI-H226 [2]): 3.16 µM | GI50 (NCI-H23): 4.37 µM | GI50 (NCI-H460): 3.31 µM | GI50 (NCI-H522): 3.24 µM | GI50 (HCC-2998): 2.4 µM | GI50 (HCT-15): 3.16 µM | GI50 (HT29): 2.57 µM | GI50 (SF-268 [3]): 4.07 µM | GI50 (SNB-75): 2 µM | GI50 (U251): 3.31 µM | GI50 (LOX IMVI [4]): 3.24 µM | GI50 (MALME-3M): 5.37 µM | GI50 (MDA-MB-435): 3.89 µM | GI50 (SK-MEL-5): 3.24 µM | GI50 (UACC-257): 3.89 µM | GI50 (IGROV1): 3.31 µM | GI50 (OVCAR-4 [5]): 4.27 µM | GI50 (OVCAR-8): 3.72 µM | GI50 (NCI/ADR-RES [6]): 3.31 µM | GI50 (CAKI-1): 2 µM | GI50 (TK-10): 4.07 µM | GI50 (T-47D [7]): 3.55 µM | activity at 10 µM (SR): 18.4% | activity at 10 µM (HOP-92 [8]): -3.33% | activity at 10 µM (NCI-H226 [9]): 14.9% | activity at 10 µM (SF-268 [10]): 13.1% | activity at 10 µM (LOX IMVI [11]): -75.8% | activity at 10 µM (UACC-62): -75.8% | activity at 10 µM (OVCAR-4 [12]): 6.5% | activity at 10 µM (OVCAR-5): 2.55% | activity at 10 µM (NCI/ADR-RES [13]): 5.44% | activity at 10 µM (SK-OV-3): 37.5% | activity at 10 µM (RXF 393): -12.9% | activity at 10 µM (UO-31): 10.3% | activity at 10 µM (PC-3): 3.75% | activity at 10 µM (DU-145): 15.4% | activity at 10 µM (MDA-MB-231/ATCC): -47% | activity at 10 µM (BT-549): 12.9% | activity at 10 µM (T-47D [14]): 38.4% | activity at 10 µM (MDA-MB-468): -42.8% | activity at 10 µM [15]: -3.07%

CC[C@]12C=CCN3CC[C@@]4(c5ccc(OC)cc5N(C)[C@H]4[C@@](O)(C(=O)OC)[C@@H]1OC(=O)CCCN1CCN(c4ccc(C(F)(F)F)cc4)CC1)[C@@H]32 [Compound 22]
GI50 (HL-60(TB)): 1.66 µM | GI50 (K-562): 1.41 µM | GI50 (EKVX): 3.09 µM | GI50 (HOP-92 [1]): 1.95 µM | GI50 (NCI-H226 [2]): 2.88 µM | GI50 (NCI-H23): 4.57 µM | GI50 (NCI-H460): 1.86 µM | GI50 (NCI-H522): 1.91 µM | GI50 (HCC-2998): 1.82 µM | GI50 (HCT-15): 1.82 µM | GI50 (HT29): 1.74 µM | GI50 (SF-268 [3]): 3.63 µM | GI50 (SNB-75): 1.66 µM | GI50 (U251): 2.24 µM | GI50 (LOX IMVI [4]): 1.7 µM | GI50 (MALME-3M): 1.58 µM | GI50 (MDA-MB-435): 1.7 µM | GI50 (SK-MEL-5): 1.7 µM | GI50 (UACC-257): 1.82 µM | GI50 (IGROV1): 2 µM | GI50 (OVCAR-4 [5]): 3.8 µM | GI50 (OVCAR-8): 3.02 µM | GI50 (NCI/ADR-RES [6]): 2.29 µM | GI50 (CAKI-1): 2.24 µM | GI50 (TK-10): 2.88 µM | GI50 (T-47D [7]): 3.02 µM | activity at 10 µM (SR): 14.2% | activity at 10 µM (HOP-92 [8]): -30.9% | activity at 10 µM (NCI-H226 [9]): -50.7% | activity at 10 µM (SF-268 [10]): 0.04% | activity at 10 µM (LOX IMVI [11]): -97.2% | activity at 10 µM (UACC-62): -90.9% | activity at 10 µM (OVCAR-4 [12]): -18.9% | activity at 10 µM (OVCAR-5): -31.1% | activity at 10 µM (NCI/ADR-RES [13]): -10.9% | activity at 10 µM (SK-OV-3): 23.6% | growth percent rate (RXF 393; 10 μM one-dose, RXF-393 renal cancer, negative = lethality): −91.93% | activity at 10 µM (RXF 393): -91.9% | activity at 10 µM (UO-31): 2.06% | activity at 10 µM (PC-3): -25.4% | activity at 10 µM (DU-145): -38.8% | activity at 10 µM (MDA-MB-231/ATCC): -67.4% | activity at 10 µM (BT-549): -69.1% | activity at 10 µM (T-47D [14]): -11.4% | activity at 10 µM (MDA-MB-468): -83.4% | activity at 10 µM [15]: -44.5%
